Measured values: patent publication US20090143368A1, “Use of Cinnamoyl Compound” (priority 2005, published 2009)

Tested on: transcription regulatory region for a human-derived Type I collagen α2 chain gene
Test: TGF-β-promoted transcription of a Type I collagen gene, COL-Luc luciferase reporter assay
Format: cell-based
Conditions: normal human fetal skin fibroblast transfected with COL-Luc, TGF-β added, 40 hours, read-out: Inhibition percentage of the ability of TGF-β to promote transcription of a Type I collagen gene; for inhibition at 3 µM: compound final concentration 3 μM; for inhibition at 1 µM: compound final concentration 1 μM; for inhibition at 10 µM: compound final concentration 10 μM
Method: 1×10^8 cells of a normal human fetal skin fibroblast (Clontech, catalogue No. CC-2509) were cultured at 37° C. overnight under 5% CO2 atmosphere. After the cultured cells were washed with a sodium phosphate buffer (hereinafter, referred to as PBS) twice, 3 ml of PBS was added thereto and the cells were scraped away the wall of a vessel using a cell scraper (Nalgen, catalogue No. 179693). The scraped cells were collected by centrifugation (1,500 rpm, 4° C., 15 min), and these were suspended in 20 ml of PBS and centrifuged again. To the resulting precipitates were added 11 ml of Solution 2 and 4.8 μl of pronase of DNA Extraction Kit (Stratagene, catalogue No. 200600). After shaken at 60° C. for 1 hour, the resulting mixture was allowed to stand in ice for 10 minutes. Then, 4 ml of Solution 3 of the kit was added to the mixture. After mixed, the mixture was allowed to stand in ice for 5 minutes and then centrifuged (3,000 rpm, 4° C., 15 min) to recover a supernatant. To the recovered supernatant was added 2 μl of RNase per 1 ml of the supernatant and the mixture was allowed to stand at 37° C. for 15 minutes. To the mixture was added 2-fold volume of ethanol. After mixed, a white thread-like substance (genomic DNA) appeared and the substance was recovered. The recovered genomic DNA was washed with 70% ethanol and then air-dried. The air-dried genomic DNA was dissolved in 500 μl of 10 mM Tris-HCl, 1 mM EDTA (pH 8.0) (hereinafter, referred to as TE).
The resulting genomic DNA-dissolved solution (genomic DNA 1 μg corresponding amount) was mixed with each 1 μl of an oligonucleotide consisting of a base sequence represented by SEQ ID No.: 1 (SEQ ID No. 1: an oligonucleotide primer designed to amplify a collagen promoter DNA: ccaagctagc gaaattatct tttctttcat ag 32) and an oligonucleotide ([…]) consisting of a base sequence represented by SEQ ID No.:2 (SEQ ID No. 2: an oligonucleotide primer designed to amplify a collagen promoter DNA: ccaaaagctt gcagtcgtgg ccagtacc 28), 29 μl of distilled water, 5 μl of a buffer attached to TaKaRa LA Taq (TAKARA SHUZO Co., Ltd., catalogue No. RR002A), 5 μl of a Mg^2+ solution, 5 μl of a dNTP mixture and 0.5 μl of TaKaRa LA Taq (TAKARA SHUZO Co., Ltd., catalogue No. RR002A). After the resulting mixed solution was incubated at 94° C. for 5 minutes, the mixed solution was subjected to 30 cycles, in which one cycle consists of incubation at 94° C. for 1 minute, at 60° C. for 1 minute and then at 72° C. for 1 minute. The mixed solution was electrophoresed on a 2% agarose gel to recover about 0.5 kb of a DNA. The recovered DNA was treated with phenol/chloroform and then precipitated with ethanol to recover the DNA. The resulting DNA was dissolved in ultrapure water. To this solution were added 2.5 μl of NheI and 2.5 μl of HindIII, and then incubated at 37° C. for 3 hours. Then, the solution was electrophoresed on a 2% agarose gel to recover about 3.5 kb of a DNA. The recovered DNA was precipitated with ethanol to recover again the DNA (hereinafter, referred to as the collagen promoter DNA).
On the other hand, the vector pGL3 (Promega, catalogue No. E1751) having the nucleotide sequence encoding firefly luciferase was digested with NheI and HindIII, and then subjected to agarose gel electrophoresis as described above to recover about 5 kb of a DNA. The recovered DNA was precipitated with ethanol to recover the DNA again. To the recovered DNA were added 44 μl of distilled water, 5 μl of Buffer attached to Alkaline Phosphatase (TAKARA SHUZO, catalogue No. 2120A) and 1 μl of Alkaline Phosphatase (TAKARA SHUZO, catalogue No. 2120A). The mixed solution was incubated at 65° C. for 30 minutes. Then, the mixed solution was treated with phenol/chloroform twice, and precipitated with ethanol to recover the DNA (hereinafter referred to as the Luc vector DNA). […]

## COC(=O)COc1cccc(C=CC(=O)C2=C(O)c3ccccc3S(=O)(=O)N2C)c1 [(1b), 4-hydroxy-3-[3-[3-[(methoxycarbonyl)methoxy]phenyl]acryloyl]-2-methyl-2H-1,2-benzothiazine-1,1-dioxide]
  inhibition at 3 µM: ≥ 70%

## COCC(=O)Nc1cccc(C=CC(=O)C2=C(O)c3ccccc3S(=O)(=O)N2C)c1 [(5b), 4-hydroxy-3-[3-[3-(methoxyacetylamino)phenyl]acryloyl]-2-methyl-2H-1,2-benzothiazine-1,1-dioxide]
  inhibition at 1 µM: ≥ 70%

## COCCNC(=O)c1cccc(C=CC(=O)C2=C(O)c3ccccc3S(=O)(=O)N2C)c1 [(10b), 4-hydroxy-3-[3-[3-[(2-methoxyethyl)aminocarbonyl]phenyl}acryloyl]-2-methyl-2H-1,2-benzothiazine-1,1-dioxide]
  inhibition at 3 µM: ≥ 70%

## COC(=O)COc1cccc(C=CC(=O)c2ccc(C)[nH]c2=O)c1 [(11c), 3-[3-[3-[(methoxycarbonyl)methoxy]phenyl]-1-oxo-2-propenyl]-6-methyl-2(1H)-pyridinone]
  inhibition at 10 µM: ≥ 70%

## COC(=O)CNC(=O)c1cccc(C=CC(=O)C2=C(O)c3ccccc3S(=O)(=O)N2C)c1 [(13b), 4-hydroxy-3-[3-[3-[[(methoxycarbonylmethyl)amino]carbonyl]phenyl}acryloyl]-2-methyl-2H-1,2-benzothiazine-1,1-dioxide]
  inhibition at 3 µM: ≥ 70%

## CN1C(C(=O)C=Cc2cccc(OCCO)c2)=C(O)c2ccccc2S1(=O)=O [(16b), 4-hydroxy-3-[3-[3-(2-hydroxyethoxy)phenyl]acryloyl]-2-methyl-2H-1,2-benzothiazine-1,1-dioxide]
  inhibition at 1 µM: ≥ 70%

## Cc1ccc(C(=O)/C=C/c2cccc(OCCO)c2)c(=O)[nH]1 [(16c), 3-[3-[3-(2-hydroxyethoxy)phenyl]-1-oxo-2-propenyl]-6-methyl-2(1H)-pyridinone]
  inhibition at 10 µM: ≥ 70%

## COCC(=O)Nc1cccc(C=CC(=O)c2c(O)c3cccnc3n(C)c2=O)c1 [(19a), 4-hydroxy-1-methyl-3-[3-[3-(methoxyacetylamino)phenyl]acryloyl]-1H-[1,8]naphthyridin-2-one]
  inhibition at 3 µM: ≥ 70%

## COCC(=O)Nc1ccc(C=CC(=O)c2c(O)c3cccnc3n(C)c2=O)cc1 [(20a), 4-hydroxy-1-methyl-3-[3-[4-(methoxyacetylamino)phenyl]acryloyl]-1H-[1,8]naphthyridin-2-one]
  inhibition at 10 µM: ≥ 70%

## COCCNC(=O)c1cccc(C=CC(=O)c2c[nH]c3ccccc3c2=O)c1 [(23c), 3-[3-[3-[(2-methoxyethyl)aminocarbonyl]phenyl}acryloyl]-4(1H)-quinolinone]
  inhibition at 1 µM: ≥ 70%

## COCCNC(=O)c1cccc(C=CC(=O)c2cn(C)c3ccccc3c2=O)c1 [(24c), 3-[3-[3-[(2-methoxyethyl)aminocarbonyl]phenyl}acryloyl]-1-methyl-4(1H)-quinolinone]
  inhibition at 3 µM: ≥ 70%

## COC(=O)CNC(=O)c1cccc(C=CC(=O)c2c(O)c3cccnc3n(C)c2=O)c1 [(29a), 4-hydroxy-1-methyl-3-[3-[3-[[(methoxycarbonylmethyl)amino]carbonyl]phenyl}acryloyl]-1H-[1,8]naphthyridin-2-one]
  inhibition at 3 µM: ≥ 70%

## COCCNC(=O)c1cccc(C=CC(=O)c2c(O)c3cccnc3[nH]c2=O)c1 [(31a), 4-hydroxy-3-[3-[3-[(2-methoxyethyl)aminocarbonyl]phenyl}acryloyl]-1H-[1,8]naphthyridin-2-one]
  inhibition at 3 µM: ≥ 70%

## COCCNC(=O)c1cccc(C=CC(=O)c2c(O)c3cccnc3n(C)c2=O)c1 [(32a), 4-hydroxy-1-methyl-3-[3-[3-[(2-methoxyethyl)aminocarbonyl]phenyl}acryloyl]-1H-[1,8]naphthyridin-2-one]
  inhibition at 3 µM: ≥ 70%

## COC(=O)COc1cccc(C=CC(=O)c2c(O)c3cccnc3n(C)c2=O)c1 [(36a), 4-hydroxy-1-methyl-3-[3-[3-[(methoxycarbonyl)methoxy]phenyl]acryloyl]-1H-[1,8]naphthyridin-2-one]
  inhibition at 3 µM: ≥ 70%

## Cn1c(=O)c(C(=O)C=Cc2cccc(OCCO)c2)c(O)c2cccnc21 [(40a), 4-hydroxy-1-methyl-3-[3-[3-(2-hydroxyethoxy)phenyl]acryloyl]-1H-[1,8]naphthyridin-2-one]
  inhibition at 3 µM: ≥ 70%

## COCCOC(=O)Nc1cccc(C=CC(=O)c2c(O)c3cccnc3n(C)c2=O)c1 [(42a), 4-hydroxy-1-methyl-3-[3-[3-[(2-methoxyethoxy)carbonylamino]phenyl]acryloyl]-1H-[1,8]naphthyridin-2-one]
  inhibition at 3 µM: ≥ 70%

## CN(C)CCOc1cccc(C=CC(=O)c2c(O)c3cccnc3n(C)c2=O)c1 [(56a), 4-hydroxy-1-methyl-3-[3-[3-(2-dimethylaminoethoxy)phenyl]acryloyl]-1H-[1,8]naphthyridin-2-one]
  inhibition at 10 µM: ≥ 70%

## COCCNC(=O)c1cccc(/C=C/C(=O)c2c(O)c3cccnc3n(C)c2=O)n1 [(124a), 4-hydroxy-1-methyl-3-[3-[6-(2-methoxyethyl)aminocarbonyl-2-pyridinyl]acryloyl]-1H-[1,8]naphthyridin-2-one]
  inhibition at 10 µM: ≥ 70%
